From US7115624B1, “Method of inhibiting protein tyrosine phosphatase 1B and/or T-cell protein tyrosine phosphatase 4 and/or other PTPases with an Asp residue at position 48” (Novo Nordisk A/S, priority 1999, dated 2006)
Read-outs that look alike come from different tables or passages of the source.

Assays:
Type in all cases: biochemical
PTPα [1] = target: T1, PTPα (Homo sapiens, UniProt P18433); experiment: PTPase inhibition, p-nitrophenyl phosphate substrate, Ki; conditions: pH 7.0 (Table 5); read-out: Ki values, PTPα
T1 construct: PTPα D1

PTP1B = target: T2, PTP1B (Homo sapiens, UniProt P18031); experiment: as above; conditions: pH 7.0; wt (Table 4); read-out: Ki values, PTP1B wt
T2 sequence (P18031 1-321): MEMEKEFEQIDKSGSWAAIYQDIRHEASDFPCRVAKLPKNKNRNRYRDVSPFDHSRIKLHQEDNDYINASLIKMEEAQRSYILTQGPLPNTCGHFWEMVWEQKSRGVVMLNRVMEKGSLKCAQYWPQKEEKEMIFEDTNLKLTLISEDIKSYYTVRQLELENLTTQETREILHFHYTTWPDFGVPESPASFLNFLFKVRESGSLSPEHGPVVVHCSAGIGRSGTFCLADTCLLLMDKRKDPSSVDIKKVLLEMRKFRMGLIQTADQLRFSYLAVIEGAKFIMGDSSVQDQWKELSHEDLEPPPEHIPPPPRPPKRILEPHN
Protocol: The assay conditions are as follows. Appropriate concentrations of the compounds of the invention (e.g., 0.1 to 100 μM) are added to the reaction mixtures containing different concentrations of the substrate, p-nitrophenyl phosphate (range: 0.16 to 10 mM—final assay concentration). The buffer used was 50 mM HEPES pH 7.0, 100 mM sodium chloride, 0.1% (w/v) bovine serum albumin, 5 mM glutathione, and 1 mM EDTA. The reaction was started by addition of the enzyme and carried out in microtiter plates at 25° C. for 60 minutes. The reactions are stopped by addition of NaOH. […] The data are analyzed using nonlinear regression fit to classical Michaelis Menten enzyme kinetic models. Inhibition is expressed as Ki values in μM.

PTPα Q259G = PTPα Q259G (Homo sapiens, UniProt P18433, Q483G); experiment: Enzyme kinetic analysis with mutant PTPs, Ki; conditions: pH 7.0
Protocol: The compounds are evaluated for biological activity with a truncated form of PTP1B (corresponding to the first 321 amino acids), which was expressed in E. coli and purified to apparent homogeneity using published procedures well-known to those skilled in the art. The enzyme reactions are carried out using standard conditions essentially as described by Burke et al. (Biochemistry 35; 15989–15996 (1996)) incorporated by reference. The assay conditions are as follows. Appropriate concentrations of the compounds of the invention (e.g., 0.1 to 100 μM) are added to the reaction mixtures containing different concentrations of the substrate, p-nitrophenyl phosphate (range: 0.16 to 10 mM—final assay concentration). The buffer used was 50 mM HEPES pH 7.0, 100 mM sodium chloride, 0.1% (w/v) bovine serum albumin, 5 mM glutathione, and 1 mM EDTA. […] The enzyme activity was determined by measurement of the absorbance at 405 nm with appropriate corrections for absorbance at 405 nm of the compounds and p-nitrophenyl phosphate. The data are analyzed using nonlinear regression fit to classical Michaelis Menten enzyme kinetic models. Inhibition is expressed as Ki values in μM.

CD45 = target: T3, CD45 (Homo sapiens, UniProt P08575); experiment: PTPase inhibition, p-nitrophenyl phosphate substrate, Ki; conditions: pH 7.0 (Table 5); read-out: Ki values, CD45
T3 sequence (P08575 599-1306 limits assumed): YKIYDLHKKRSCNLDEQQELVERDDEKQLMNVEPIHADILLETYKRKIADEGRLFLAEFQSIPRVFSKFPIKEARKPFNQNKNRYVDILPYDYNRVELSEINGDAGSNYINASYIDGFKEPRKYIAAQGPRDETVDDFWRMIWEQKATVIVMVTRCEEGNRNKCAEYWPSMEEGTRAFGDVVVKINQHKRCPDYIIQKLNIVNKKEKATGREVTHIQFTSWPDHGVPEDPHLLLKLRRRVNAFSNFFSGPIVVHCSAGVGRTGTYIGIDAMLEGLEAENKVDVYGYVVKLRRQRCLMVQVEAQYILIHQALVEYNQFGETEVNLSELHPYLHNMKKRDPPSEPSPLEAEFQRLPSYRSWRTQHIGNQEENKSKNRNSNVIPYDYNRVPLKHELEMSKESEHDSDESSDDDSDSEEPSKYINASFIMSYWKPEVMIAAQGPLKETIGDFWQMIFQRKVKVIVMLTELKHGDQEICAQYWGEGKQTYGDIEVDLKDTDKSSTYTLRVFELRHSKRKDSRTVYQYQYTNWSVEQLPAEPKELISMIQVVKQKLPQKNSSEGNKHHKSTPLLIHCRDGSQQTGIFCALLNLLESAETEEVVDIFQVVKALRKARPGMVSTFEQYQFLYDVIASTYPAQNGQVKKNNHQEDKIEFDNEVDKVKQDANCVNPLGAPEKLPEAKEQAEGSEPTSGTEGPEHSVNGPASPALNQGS

TC-PTP = target: T4, TC-PTP (Homo sapiens, UniProt P17706); experiment: as above; conditions: pH 7.0 (Table 5)
T4 sequence (P17706 5-275 limits assumed): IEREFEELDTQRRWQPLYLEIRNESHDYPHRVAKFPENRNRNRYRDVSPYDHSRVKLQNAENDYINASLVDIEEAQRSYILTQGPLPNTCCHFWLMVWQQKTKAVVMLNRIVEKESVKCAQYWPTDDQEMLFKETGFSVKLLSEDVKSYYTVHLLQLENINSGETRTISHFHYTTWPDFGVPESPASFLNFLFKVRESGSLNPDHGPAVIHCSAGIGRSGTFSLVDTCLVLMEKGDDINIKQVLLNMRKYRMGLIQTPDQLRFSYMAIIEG
Protocol: (§1) Specificity against a broad set of PTPs—It was next analyzed if the side chain of NNC 52–1153 would cause the increased selectivity against other PTPs. NNC 52–1153 was tested against a set of 10 different wt PTP domains (Table 5). It appears from this table that a substantial increase in affinity for PTP1B and TC-PTP has been obtained, while at the same time introducing a very high degree of selectivity against many other PTPs representing a broad spectrum of this class of enzymes (having Asp 48).
(§2) The assay conditions are as follows.

GLEPP1 = target: T5, GLEPP1 (Homo sapiens, UniProt Q16827); experiment: as above; conditions: pH 7.0 (Table 5)
T5 sequence (Q16827 938-1195 limits assumed): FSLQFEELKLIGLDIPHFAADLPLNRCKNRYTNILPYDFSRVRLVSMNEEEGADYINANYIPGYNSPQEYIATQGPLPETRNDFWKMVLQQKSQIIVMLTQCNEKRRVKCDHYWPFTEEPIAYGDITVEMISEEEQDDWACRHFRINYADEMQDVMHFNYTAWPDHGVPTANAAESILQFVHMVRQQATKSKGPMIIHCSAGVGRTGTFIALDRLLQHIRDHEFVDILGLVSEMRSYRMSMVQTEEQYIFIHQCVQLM
Protocol: as §1, §2

PTPH1 = target: T6, PTPH1 (Homo sapiens, UniProt P26045); experiment: as above; conditions: pH 7.0; wt (Table 4)
T6 sequence (P26045 646-901 limits assumed): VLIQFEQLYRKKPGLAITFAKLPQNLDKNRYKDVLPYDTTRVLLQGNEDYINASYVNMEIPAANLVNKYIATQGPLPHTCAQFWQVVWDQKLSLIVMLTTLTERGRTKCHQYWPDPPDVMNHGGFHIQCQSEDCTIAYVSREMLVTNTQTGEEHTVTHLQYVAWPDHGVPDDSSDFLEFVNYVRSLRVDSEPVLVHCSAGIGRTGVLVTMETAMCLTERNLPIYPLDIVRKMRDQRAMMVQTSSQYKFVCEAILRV
Excerpt: (§3) To test directly, whether the above compound was addressing the proposed region of PTP1B, Compound N was subjected to detailed enzyme kinetic analyses using a set of wildtype (wt) and mutant PTPs. Two enzymes, PTPα and PTPH1, were chosen as representatives for PTPs with bulky side chains in the 259 position. Using a combination of wt and PTP mutants it has previously been shown that Gln259 in PTPα, in addition to its direct effect, also indirectly influences the binding of inhibitors and substrates, most likely due to a negative influence on the rotational freedom of the side chain of Gln262 (Peters et al., J. Biol. Chem. 275: 18201–18209 (2000)). As described above, selectivity can be obtained by introducing a basic nitrogen into 2-(oxalylamino)-4,5,6,7-tetrahydrobenzo[b]thiophene-3-carboxylic acid that causes attraction in PTP1B due to salt bridge formation to Asp48 and repulsion against PTPs with an asparagine in the 48 position, such as PTPα. To analyze if the current approach based on steric hindrance is generally applicable, it was decided to include a PTP with an aspartic acid in position 48. PTPH1, which like PTP1B is an intracellular enzyme with one domain only, was selected for these studies. The results of these studies are shown below (Table 4).
as §2

PTPα [2] = target: T1, PTPα; experiment: as above; conditions: pH 7.0; wt (Table 4)
Excerpt: as §3, §2

T1 sequence (P18433 241-501 limits assumed): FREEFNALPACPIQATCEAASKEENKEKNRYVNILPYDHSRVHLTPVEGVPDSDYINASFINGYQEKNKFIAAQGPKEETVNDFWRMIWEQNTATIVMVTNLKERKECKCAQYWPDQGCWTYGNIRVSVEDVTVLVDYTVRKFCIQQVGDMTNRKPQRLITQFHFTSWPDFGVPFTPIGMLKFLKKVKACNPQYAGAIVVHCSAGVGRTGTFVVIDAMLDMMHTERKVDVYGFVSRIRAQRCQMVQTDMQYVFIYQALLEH
PTPα Q259G, sequence (P18433 211-512 Q483G limits assumed): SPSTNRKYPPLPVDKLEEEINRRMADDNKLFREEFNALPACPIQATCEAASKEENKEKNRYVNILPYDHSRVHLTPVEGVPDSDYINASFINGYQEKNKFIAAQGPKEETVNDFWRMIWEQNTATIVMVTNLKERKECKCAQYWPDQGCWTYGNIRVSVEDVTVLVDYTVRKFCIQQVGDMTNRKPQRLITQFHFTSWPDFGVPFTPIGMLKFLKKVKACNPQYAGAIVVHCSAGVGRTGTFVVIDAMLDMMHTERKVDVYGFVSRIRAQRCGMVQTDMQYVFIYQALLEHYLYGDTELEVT

Ki (PTPα [1]): 700 µM
Ki (PTP1B): 0.4 µM
Ki (PTPα Q259G): 70 µM
Ki (CD45): 500 µM
Ki (TC-PTP): 0.6 µM
Ki (GLEPP1): 150 µM
Ki (PTPH1): 55 µM
Ki (PTPα [2]): > 500 µM
Structure (SMILES): O=C(O)C(=O)Nc1sc2c(c1C(=O)O)CCOC2COC1=NS(=O)(=O)c2ccccc21 (centres unmarked) [Compound N, 7-(1,1-dioxo-1H-benzo[d]isothiazol-3-yloxymethyl)-2-(oxalyl-amino)-4,7-dihyd ro-5H-thieno[2,3-c]pyran-3-carboxylic acid]
